Patent US8288374B2, “Medicinal composition containing benzo[a]phenoxazine compound as the active ingredient for prevention or treatment of protozoal disease” (Hoshi University, priority 2008, dated 2012)
Converted amounts (≈) assume the structure as drawn. Where a name gives a salt, the structure may show the parent alone. Read-outs that look alike come from different tables or passages of the source.

What was measured:
[1] = tested on: Plasmodium berghei NK65 strain; test: Cure test by oral administration to mice infected with malaria; format: in vivo; settings: for inhibition in vivo at 100 mg/kg: Plasmodium berghei; for Effectiveness in the in vivo malaria test, in words: oral administration to mice infected with rodent malaria; for Days of survival: mean days to death minus that of control mice
Method: In this experiment, rodent malaria parasites (the Plasmodium berghei NK65 strain) were used.
The infected blood to be used was subcultured in ICR female SPF mice infected by intraperitoneal or tail vein administration at 4 to 6 weeks old (20 to 26 g). […] Thereafter, based on the number of red cells (cells/ml) and the rate of infection by the protozoans, the blood was diluted with phys'iological saline such that a density of […] malaria parasites/1 ml dose was attained. This was used for infection of uninfected mice (ICR female mice, 5 weeks old) in an amount of 0.2 ml/20 g body weight, through the tail vein (Day-0). The compound used in the test was dissolved in 10% DMSO solution (a mixture of 1 ml of DMSO and 9 ml of 5% glucose solution).
Each group contained 4 mice, and the compound was orally administered to the mice 24 hours after their infection with malaria (Day-1), in an amount calculated such that 100 mg of the compound was administered per 1 kg of the body weight of a mouse. On the other hand, in terms of cases in which the amount was calculated such that 30 mg of the compound was administered per 1 kg of the body weight of a mouse, the oral administration was carried out a total of three times, that is, 24 hours (Day-1), 48 hours (Day-2) and 72 hours (Day-3) after the infection of malaria.
Blood was collected from the tails of each mouse 96 hours (Day-4) and 144 hours (Day-6) after the infection with malaria, and thin blood films were prepared. Under the microscope, the numbers of infection of malaria parasites in the group to which the compound was administered and the control group (to which the compound was not administered) were measured, and the rates of infection with malaria parasites (Parasitemia) were calculated.
From the rate of infection with malaria parasites calculated as above, the cure rate (Suppression) in the case of administration of the drug was calculated according to the following equation. Cure rate: Suppression (%)=(B−A)/B×100
A: Rate of infection with the protozoans in a mouse to which the present test compound was administered
B: Rate of infection with the parasites in a control mouse (to which the compound was not administered) Days of survival: MSD (day)=C−D
C: the average number of days from the date of infection with malaria to the date of death in the mice to which the present test compound was administered
D: The average number of days from the date of infection with malaria to the date of death in the 4 individuals of control mice (to which the compound was not administered)
Further, by observation of changes in the body weight, hair glossiness and the like of each mouse, side effects such as acute toxicity due to administration of the compound were evaluated.

Plasmodium falciparum K1 = test: Chloroquine resistant-Plasmodium falciparum growth inhibition screening test; format: cell-based; settings: for Selective toxicity: EC50 against rat L6 cells / EC50 against P. falciparum K1; for EC50: Plasmodium falciparum, Table 2, unit inferred, chloroquine-resistant K1 strain, read-out: P. falciparum K1
Method: In the present experiment, protozoa of plasmodium falsiparum K1 strain was used. RPMI-1640 medium sterilized with a filter to which human serum was added to be 5%, was used in the experiment. Malarial parasites were cultured under 3% O2 concentration, 4% CO2 concentration, 93% N2 concentration, and at a temperature of 37° C.
The compounds of the present invention to be used in the present test and the positive control drug (chloroquine) were dissolved in DMSO to make a test solution of a predetermined concentration. Cultured malaria parasite infected-erythrocytes were collected by centrifugation, and diluted with non-infected erythrocyte so that the early infection rate was 0.15%. Hematocrit level at that time was 2.5%.
200 μL of malaria infected solution was added to wells of a 96-well culture plate, and adjusted by adding a test solution containing drug of a predetermined concentration or a drug-free DMSO. Test solutions were taken by duplicates.
[…] […] Radiation intensity was measured with a beta plate liquid scintillation counter (Wallac), and malarial parasite infection rates of the test solution added group and the control group were calculated.
Growth inhibition rate (%)={1−(b−a)/(c−a)}×100 • a: early infection rate • b: infection rate when test solution was added • c: infection rate of the control 3. Growth Inhibition Test of Rat L6 Cells
Antimalarial activity of a sample was estimated from EC50 values of the sample against chloroquine resistant-Plasmodium falciparum and rat L6 cells. […] It means that the larger the value of the selection toxity, the less the risk of the side effect is. Chemotherapy index=(EC50 value of a sample against rat L6 cells)/(EC50 value of a sample against chloroquine resistant-Plasmodium falsiparum)

Rat L6 cells = test: Growth inhibition test of rat L6 cells; format: cell-based; settings: Table 2, unit inferred, 72 hours, read-out: Cytoxicity L6
Method: Rat derived-L6 cells (rat skeletal myoblast cell) were used. A medium, RPMI1640 medium was supplemented so that L-glutamin (200 mM) is 1%, and fetal bovine serum 10%, and the medium was cultured under CO2 concentration 5%, at 37° C.
The compounds of the present invention and the control drugs to be used in the test were dissolved in DMSO, to make a test solution of a predetermined concentration.
Pre-culture was conducted and medium containing cells which have entered the logarithmic growth phase was taken to wells of a 96-well culture plate. Then, a test solution containing drug of a predetermined concentration or a drug-free DMSO was added. Test solutions were taken by duplicates.
Culture plate was cultured for 72 hours in an incubator, to test the growth inhibition activity. Test was conducted as follows. 10 μL of Alamar Blue aqueous solution was added to each well, and the resultant was further cultured for 2 hours. Next, the culture plate was placed on a fluorescent micro-plate reader (Spectramax Gemeni XS; US Molecular Device), radiated at an excited wavelength of 536 nm. Fluorescent intensity was measured at 588 nm, and residual rate of L6 cells of the test solution added group, and that of the control was calculated.
Growth inhibition rate (%)={(C−A)/(B−A)}×100 • A: Primary cell count • B: cell count of control, 3 days after • C: cell count of wells added with a sample, 3 days after 4. Determination of Drug Efficacy Against Chloroquine Resistant-Plasmodium

[2] = po, 96 h, read-out: Cure rate (%) Day-4
[3] = po, 144 h, read-out: Cure rate (%) Day-6
[4] = 96 h, oral, 100 mg/kg, 1 dose, infected ICR mice, suppression vs control, read-out: Cure rate (%) Day-4
[5] = 144 h, oral, 100 mg/kg, 1 dose, infected ICR mice, suppression vs control, read-out: Cure rate (%) Day-6

CCN(CC)c1ccc2nc3c4ccccc4/c(=N\c4ccccc4)cc-3oc2c1 [Compound 1U, reference compound]
inhibition in vivo at 100 mg/kg [1, 2]: 0% | inhibition in vivo at 100 mg/kg [1, 3]: 16.8% | Effectiveness in the in vivo malaria test, in words [1]: effectiveness was hardly observed | Days of survival ([1]; oral, 100 mg/kg, 1 dose): 0.8 days

CCN(CC)c1ccc2nc3c4ccccc4c(=Nc4cc(C)nc5ccccc45)cc-3oc2c1 [Compound 1P, N,N-Diethyl-5-(2-methylquinoline-4-ylimino)-5H-benzo[a]phenoxazin-9-amine]
Selective toxicity (Plasmodium falciparum K1): 183 | EC50 (Plasmodium falciparum K1): 0.036 mg/L (≈ 0.0785 µM) | melting point: 229 to 230 °C | EC50 (Rat L6 cells): 6.6 mg/L (≈ 14.4 µM)

CCN(CC)c1ccc2nc3c4ccc(Br)cc4c(=Nc4ccccn4)cc-3oc2c1 [Compound 1F, 3-Bromo-N,N-diethyl-5-(pyridin-2-ylimino)-5H-benzo[a]phenoxazin-9-amine]
melting point: 204 to 205 °C

c1ccc(/N=c2/cc3oc4cc(N5CCOCC5)ccc4nc-3c3ccccc23)nc1 [Compound 1O, N-(9-Morphlino-5H-benzo[a]phenoxazin-5-ylidene)pyridin-2-amine]
Selective toxicity (Plasmodium falciparum K1): 1386 | EC50 (Plasmodium falciparum K1): 0.015 mg/L (≈ 0.0367 µM) | EC50 (Rat L6 cells): 20.8 mg/L (≈ 50.9 µM) | inhibition in vivo at 100 mg/kg [1, 4]: 81% | inhibition in vivo at 100 mg/kg [1, 5]: 60% | Days of survival ([1]; oral, 100 mg/kg, 1 dose): 0.6 days

CCN(CC)c1ccc2nc3c4ccccc4c(=Nc4cccnc4)cc-3oc2c1 [Compound 1N, N,N-Diethyl-5-(pyridin-3-ylimino)-5H-benzo[a]phenoxazin-9-amine]
Selective toxicity (Plasmodium falciparum K1): 5123 | EC50 (Plasmodium falciparum K1): 0.009 mg/L (≈ 0.0228 µM) | EC50 (Rat L6 cells): 46.1 mg/L (≈ 117 µM) | inhibition in vivo at 100 mg/kg [1, 4]: 41% | inhibition in vivo at 100 mg/kg [1, 5]: 0% | Days of survival ([1]; oral, 100 mg/kg, 1 dose): 0 days

c1ccc2c(=Nc3ccncc3)cc3oc4cc(N5CCOCC5)ccc4nc-3c2c1 [Compound 1e, 9-Morpholino-5-(pyridin-4-ylimino)-5H-benzo[a]phenoxazine]
melting point: > 300 °C

CCOC(=O)C(Cc1ccc(O)cc1)N=c1cc2oc3cc(N(CC)CC)ccc3nc-2c2ccccc12 (stereo not shown) [Compound 1Q, Ethyl 2-[9-(Diethylamino)-5H-benzo[a]phenoxazin-5-ylideneamino]-3-(4-hydroxyphenyl)propanoate]
Selective toxicity (Plasmodium falciparum K1): 751 | EC50 (Plasmodium falciparum K1): 0.045 mg/L (≈ 0.0883 µM) | melting point: 175 to 181 °C | EC50 (Rat L6 cells): 33.8 mg/L (≈ 66.3 µM)

CCN(CC)c1ccc2nc3c(cc(N)c4ccccc43)[o+]c2c1 [Nile blue A, reference compound]
inhibition in vivo at 100 mg/kg [1, 4]: 15% | inhibition in vivo at 100 mg/kg [1, 5]: 5% | Effectiveness in the in vivo malaria test, in words [1]: did not show effectiveness | Days of survival ([1]; oral, 100 mg/kg, 1 dose): 0.3 days

CCN(CC)c1cc(C)c2c(c1)OC1=CC(Nc3ccccn3)c3ccccc3C1=N2 (stereo not shown) (as salt: HCl) [Compound 1a, N,N-Diethyl-11-methyl-5-(pyridin-2-ylamino)-5H-benzo[a]phenoxazin-9-amine]
melting point: 167.2 to 168.4 °C

CCN(CC)c1cc(C)c2c(c1)OC1=CC(Nc3cccnc3)c3ccccc3C1=N2 (stereo not shown) (as salt: HCl) [Compound 1b, N,N-Diethyl-11methyl-5-(pyridin-3-ylamino)-5H-benzo[a]phenoxazin-9-amine]
melting point: 161.6 to 163.1 °C

CCN(CC)c1ccc2nc3c4ccccc4/c(=N\c4ccc(C)cc4)cc-3oc2c1 [Compound 1V, reference compound]
inhibition in vivo at 100 mg/kg [1, 2]: 0% | inhibition in vivo at 100 mg/kg [1, 3]: 11.4% | Effectiveness in the in vivo malaria test, in words [1]: effectiveness was hardly observed | Days of survival ([1]; oral, 100 mg/kg, 1 dose): 0.8 days

CCN(CC)c1cc(C)c2c(c1)OC1=CC(Nc3ccncc3)c3ccccc3C1=N2 (stereo not shown) (as salt: HCl) [Compound 1c, N,N-Diethyl-11-methyl-5-(pyridin-4-ylamino)-5H-benzo[a]phenoxazin-9-amine]
melting point: > 300 °C

CCN(CC)c1ccc2nc3c4ccccc4c(=O)cc-3oc2c1 [Nile red, reference compound]
inhibition in vivo at 100 mg/kg [1, 4]: 16% | inhibition in vivo at 100 mg/kg [1, 5]: 3% | Effectiveness in the in vivo malaria test, in words [1]: did not show effectiveness | Days of survival ([1]; oral, 100 mg/kg, 1 dose): 0 days

CCCN(CCC)c1ccc2nc3c4ccccc4c(=Nc4ccncc4)cc-3oc2c1 [Compound 1D, N,N-Dipropyl-5-(pyridin-4-ylimino)-5H-benzo[a]phenoxazin-9-amine]
melting point: 215 to 216 °C

CCNc1cc2[o+]c3cc(NCC)c4ccccc4c3nc2cc1C [Oxazin 170 perchlorate, reference compound]
inhibition in vivo at 100 mg/kg [1, 4]: 40% | inhibition in vivo at 100 mg/kg [1, 5]: 57% | Effectiveness in the in vivo malaria test, in words [1]: did not show effectiveness | Days of survival ([1]; oral, 100 mg/kg, 1 dose): 1.3 days

c1ccc2c(=Nc3ccncc3)cc3oc4cc(N5CCCCC5)ccc4nc-3c2c1 [Compound 1f, 9-(Piperidin-1-yl)-5-(pyridin-4-ylimino)-5H-benzo[a]phenoxazine]
melting point: 266.8 to 268.2 °C

CCN(CCNS(C)(=O)=O)c1cc(C)c2nc3c4ccccc4c(=Nc4cccnc4)cc-3oc2c1 [Compound 1T, N-Ethyl-N-(2-methansulfonamidylethyl)-11-methyl-5-(pyridine-3-ylimino)-5H-benzo[a]phenoxazin-9-amine]
Selective toxicity (Plasmodium falciparum K1): 2988 | EC50 (Plasmodium falciparum K1): 0.008 mg/L (≈ 0.0159 µM) | EC50 (Rat L6 cells): 23.9 mg/L (≈ 47.7 µM) | inhibition in vivo at 100 mg/kg [1, 4]: 96.5% | inhibition in vivo at 100 mg/kg [1, 5]: 79.4% | Effectiveness in the in vivo malaria test, in words [1]: excellent cure effects | Days of survival ([1]; oral, 100 mg/kg, 1 dose): 13.3 days

CCCCN(CCCC)c1ccc2nc3c4ccccc4c(=Nc4ccncc4)cc-3oc2c1 [Compound 1E, N,N-Dibutyl-5-(pyridin-4-ylimino)-5H-benzo[a]phenoxazin-9-amine]
melting point: 188 to 189 °C
